In PMC6696115, “Characterization of Antimicrobial, Antioxidant, and Leishmanicidal Activities of Schiff Base Derivatives of 4-Aminoantipyrine” (Molecules, 2019):
Values after ≈ are worked out from the molar mass of the structure shown.

Assays:
[1] = system: promastigotes from L. mexicana (M379); assay: leishmanicidal activity, MTT colorimetric assay; format: cell-based; conditions: Leishmania mexicana, 48 h exposure, 1% DMSO
Description: Leishmanicidal activities of all Schiff bases were evaluated by measuring promastigote mitochondrial activity using MTT colorimetric assay as described previously. […] The medium was renewed every four days. Parasite density was determined in a Neubauer chamber.
Into each well of a 96-well cell culture dish was dispensed 1 × 10^6 parasites. A stock solution of each of the Schiff Base was prepared in DMSO, and serial dilutions were added to the parasite suspension, keeping the solvent concentration at 1%. The final volume was 100 µL for each well and triplicate conditions were carried out. Pentamidine treatment (100 µg/mL) and untreated parasites were used as positive control and negative control, respectively. After exposure to the compounds for 48 h in culture medium, 10 µL of a solution of 5 mg/mL MTT dissolved in PBS was added to each well. […] Later, the plate was centrifuged at 4400 rpm for 10 min and the culture medium was then aspirated. Next, 100 µL of DMSO were added into each well to solubilize the formazan and the plate was shaken for 5 min. The colored formazan salt was measured by recording changes in absorbance at 570 nm using a microplate reader, a BioTek Synergy HT spectrophotometer. A reference wavelength of 630 nm was used to subtract background. Optical densities were analyzed as the quantity of formazan is directly proportional to the number of viable parasites. Data were analyzed with the statistical software GraphPad Prism.

[2] = system: S. cerevisiae (backgrounds W303 and BY4741); assay: antimicrobial serial microdilution, S. cerevisiae; format: cell-based, Saccharomyces cerevisiae; conditions: for MIC: read-out: MIC S. cerevisiae
Description: (§1) The in vitro antifungal and antimicrobial activities were determined by testing the Schiff bases against the fungi Saccharomyces cerevisiae, Candida albicans, and Aspergillus niger and the bacteria Staphylococcus aureus, Enterococcus faecalis (Gram-positive), Pseudomonas aeruginosa, and Escherichia coli (Gram-negative).
(§2) The bacterial inoculum was prepared by emulsifying overnight colonies from an agar medium in broth (Mueller–Hinton broth). The suspensions were adjusted to a final organism density of 5 × 10^5 colony former units (cfu)/mL. […] The emulsifying of A. niger cultures was done by pouring 5 mL of saline and 0.1% of polysorbate 80 over the Petri dishes. Then, 100 µL of this suspension were diluted in 5 mL of saline and adjusted to an optical density of 0.1 at 530 nm. For S. cerevisiae, fresh exponential YPAD (yeast extract 1%, peptone 2%, adenine 0.004%, […]) cultures were adjusted to an optical density of 0.5 at 600 nm, and then diluted to the equivalent of 1 × 10^4 cells/mL (10^−3 dilution). Stock solutions of Schiff bases were prepared by dissolving them in DMSO at 10 mg/mL. […] The range of concentrations used was empirically selected for each organisms and the Schiff base. Drug sensitivities were assayed by serial dilutions in 96-well plates as previously described. A row with media and cells but without drug was the positive control. The blank was done by preparing a row with media and drugs, but without cells. Plates were fitted with a tight lid before incubation to prevent desiccation. […] The minimum bactericidal concentration (MBC) and fungicidal concentration (MFC) were determined by spreading 100 µL of culture from each well onto a plate (Mueller–Hinton agar for bacteria, Sabouraud dextrose agar for fungi except S. cerevisiae, and YPAD for S. cerevisiae).

P. aeruginosa ATCC 27853 = assay: antimicrobial serial microdilution, P. aeruginosa; format: cell-based; conditions: Pseudomonas aeruginosa, ATCC27853, 37 °C, 24 h
Description: as §1, §2

[3] = system: Staphylococcus aureus ATCC 29213; assay: antimicrobial serial microdilution, S. aureus; format: cell-based
Description: as §1, §2

[4] = system: Enterococcus faecalis ATCC 29212; assay: antimicrobial serial microdilution, E. faecalis; format: cell-based
Description: as §1, §2

[5] = system: Escherichia coli ATCC 25922; assay: antimicrobial serial microdilution, E. coli; format: cell-based
Description: as §1, §2

[6] = system: Aspergillus niger ATCC 6275; assay: antimicrobial serial microdilution, A. niger; format: cell-based; conditions: for MIC: 96-well plates, max 2% DMSO
Description: as §1, §2

[7] = DPPH radical scavenging assay; format: biochemical; conditions: 30 min, room temperature, dark, absorbance 515 nm
Description: This was used immediately. The experimental procedure was adapted from the literature. Briefly, in a 96-well plate, 100 µL of solution of DPPH (2, 2-diphenyl-1-picrylhydrazyl) radical (0.2 mM in methanol) was added to 100 µL of methanolic solutions of 3a–j, 4, or 5, prepared as serial two-fold dilutions from the stock solution. Standards were also prepared in the same concentrations.
The percentage of DPPH scavenging was then calculated by using the following formula: % DPPH scavenging=100∗Asample+DPPH−Asample blank/ADPPH−Asolvent

[8] = system: Candida albicans ATCC 10231; assay: antimicrobial serial microdilution, C. albicans; format: cell-based
Description: as §1, §2

RAW 264.7 cells = assay: cell viability, MTT dye assay; format: cell-based, murine; conditions: 48 h
Description: The specificity and selectivity for the pathogen target is a key point for any potential drug.
The medium was renewed once a week. The viability was determined using MTT (thiazolyl blue tetrazolium bromide) dye assay as described previously for leishmanicidal activity assessment, with some variations. Here, 5 × 10^4 cells/well in a final volume of 100 µL were deposited into a 96-well plate in triplicate. Saponin (2 and 4 mg/mL) and untreated cells were used as the positive control and negative control, respectively. Schiff bases were dissolved in DMSO to obtain different serial concentrations (0.01–2000 µM). […] Cells were pelleted by centrifugation at 4400 rpm for 10 minutes and the media was removed. Next, 100 µL/well of DMSO were added and the absorbance at 570 nm was recorded. A reference wavelength of 630 nm was used for background subtraction.

S. cerevisiae = system: S. cerevisiae; parameters: method as in PMID 24028688; conditions: published data; cited from earlier work
[9] = system: S. cerevisiae wild-type (W303 and BY4741 backgrounds); assay: drop test, wild-type yeast; format: cell-based, Saccharomyces cerevisiae; conditions: wild-type cells
Description: Since the Schiff bases have a limited solubility in dimethyl sulfoxide (DMSO), first, we tested the toxicity of DMSO against the selected microorganism. […] Wild-type cells from W303 background seem to be more resistant, and sensitivity is observed at around 4% DMSO.
Next, we wanted to evaluate the oxidative activity. To do this, drop test assays were performed with wild-type (W303 and BY4741 backgrounds) and sod1 (BY4741 background) yeast cells in the presence of 200 µg/mL of the analyzed Schiff bases (Figure 3). The SOD1 gene encodes superoxide dismutase 1, an enzyme with a major role in detoxifying ROS species generated during metabolism or because of environmental exposure. sod1 mutant cells are unprotected against oxidative agents, decreasing survival in their presence. […] Also, wild-type cells are shown as control, unaffected by the Schiff bases.
For the drop test with S. cerevisiae, wild-type strain (background W303), and wild type and sod1 mutant cells (background BY4741) were grown overnight in YPAD media until an optical density of 0.5 at 600 nm was reached (equivalent to 1 × 10^7 cells/mL). Three serial dilutions were prepared and 5 µL of each was spotted onto a plate (approximately 1 × 10^5, 1 × 10^4, 1 × 10^3, and 1 × 10^2 cells/spot). YPAD plates were supplemented with 200 µg/mL of each Schiff base, and one plate supplemented with 2% DMSO and one plate with YPAD without any drug were used as controls. Plates were incubated at 25 °C for 24, 48, and 72 h.

[10] = Saccharomyces cerevisiae, serial microdilution, 35 °C, 48 h
[11] = noninhibitory concentration, serial microdilution, 35 °C, 48 h
[12] = Staphylococcus aureus, ATCC29213, serial microdilution, 37 °C, 24 h
[13] = noninhibitory concentration, serial microdilution, 37 °C, 24 h
[14] = Enterococcus faecalis, ATCC29212, serial microdilution, 37 °C, 24 h
[15] = Escherichia coli, ATCC25922, serial microdilution, 37 °C, 24 h
[16] = Aspergillus niger, ATCC6275, serial microdilution, 35 °C, 48 h
[17] = Candida albicans, ATCC10231, serial microdilution, 35 °C, 48 h

Compound | melting point | IC50 [1] | MIC [2, 10] | MIC (P. aeruginosa ATCC 27853) | MIC [3, 12] | MIC [4, 14] | MIC [5, 15] | MIC [6, 16] | IC50 [7] | MIC [8, 17] | further results
Cc1c(N=Cc2cc([N+](=O)[O-])ccc2O)c(=O)n(-c2ccccc2)n1C [Compound 3f, 4-(2-Hydroxy-5-nitrobenzylideneamino)-1,5-dimethyl-2-phenyl-1H-pyrazol-3(2H)-one] | 204.9 to 205.6 °C | 5.3 ± 2.8 µM | 55.9 ± 6.2 µg/mL (≈ 159 µM) | > 200 µg/mL | 27.7 ± 4.7 µg/mL (≈ 78.6 µM) | > 200 µg/mL | 47.7 ± 1 µg/mL (≈ 135 µM) | 32.6 ± 2.1 µg/mL (≈ 92.5 µM) | > 200 µM | 15.6 ± 0.9 µg/mL (≈ 44.3 µM) | IC50 ([2]; Saccharomyces cerevisiae, serial microdilution, 35 °C, 48 h, read-out: IC50 S. cerevisiae (converted)): 17.9 µg/mL (≈ 50.8 µM); NIC S. cerevisiae [2, 11]: 5.6 ± 0.9 µg/mL; IC50 [3, 12]: 9.5 µg/mL (≈ 27 µM); NIC S. aureus [3, 13]: 3.3 ± 1.5 µg/mL; IC50 [5, 15]: 15.8 µg/mL (≈ 44.8 µM); NIC E. coli [5, 13]: 4.9 ± 0.2 µg/mL; IC50 [6, 16]: 10.6 µg/mL (≈ 30.1 µM); NIC A. niger [6, 11]: 3.4 ± 0.5 µg/mL; IC50 [8, 17]: 10.4 µg/mL (≈ 29.5 µM); NIC C. albicans [8, 11]: 7.5 ± 1.1 µg/mL
COc1cc(C=Nc2c(C)n(C)n(-c3ccccc3)c2=O)cc(OC)c1O [Compound 3j, 4-(4-Hydroxy-3,5-dimethoxybenzylideneamino)-1,5-dimethyl-2-phenyl-1H-pyrazol-3(2H)-one] | 259.2 to 260.7 °C | > 200 µM | > 200 µg/mL | > 200 µg/mL | > 200 µg/mL | > 200 µg/mL | > 200 µg/mL | > 200 µg/mL | 15.7 ± 3.2 µM | > 200 µg/mL | 
COc1ccc(C=Nc2c(C)n(C)n(-c3ccccc3)c2=O)cc1O [Compound 3e, 4-(3-Hydroxy-4-methoxybenzylideneamino)-1,5-dimethyl-2-phenyl-1H-pyrazol-3(2H)-one] | 246.8 to 247.2 °C | > 200 µM | > 200 µg/mL | > 200 µg/mL | > 200 µg/mL | > 200 µg/mL | > 200 µg/mL | > 200 µg/mL | > 200 µM | > 200 µg/mL | % Live Cells (RAW 264.7 cells; RAW 264.7, exposure to 300 µM (limited solubility)): 27.1 ± 0.8%
Cc1c(N=Cc2ccccc2)c(=O)n(-c2ccccc2)n1C [Compound 3a, 4-Benzylideneamino-1,5-dimethyl-2-phenyl-1H-pyrazol-3(2H)-one] | 176.8 to 177.2 °C | > 200 µM | > 200 µg/mL | > 200 µg/mL | > 200 µg/mL | 32.3 ± 11.7 µg/mL (≈ 111 µM) | > 200 µg/mL | > 200 µg/mL | > 200 µM | > 200 µg/mL | IC50 [4, 14]: 12.2 µg/mL (≈ 41.9 µM); NIC E. faecalis [4, 13]: 3.6 ± 0.7 µg/mL; % Live Cells (RAW 264.7 cells; RAW 264.7, exposure to 400 µM): 27.1 ± 3.4%
C[S+](C)[O-] [DMSO, dimethyl sulfoxide] |  |  |  |  |  |  |  |  |  |  | IC50 DMSO S. cerevisiae ([2]; DMSO toxicity): 35.62 ± 1.0%; MIC DMSO S. cerevisiae ([2]; DMSO toxicity): 71.47 ± 1.7%; NIC DMSO S. cerevisiae ([2]; DMSO toxicity): 5.04 ± 1.1%; IC50 DMSO S. aureus ([3]; DMSO toxicity): 20.36 ± 5.2%; MIC DMSO S. aureus ([3]; DMSO toxicity): 32.64 ± 6.9%; NIC DMSO S. aureus ([3]; DMSO toxicity): 8.52 ± 0.9%; IC50 DMSO E. faecalis ([4]; DMSO toxicity): 8.66 ± 0.6%; MIC DMSO E. faecalis ([4]; DMSO toxicity): 20.02 ± 1.3%; NIC DMSO E. faecalis ([4]; DMSO toxicity): 3.68 ± 0.2%; DMSO concentration significantly toxic for S. cerevisiae (S. cerevisiae): over 2%; DMSO concentration at which cells begin to show diminished viability (drop test) ([9]; BY4741 strain): ≥ 3%; DMSO concentration at which sensitivity is observed (drop test) ([9]; W303 background): around 4%; NIC DMSO E. coli ([5]; DMSO toxicity): 11.95 ± 2.9%; IC50 DMSO A. niger ([6]; DMSO toxicity): 4.36 ± 2.0%; MIC DMSO A. niger ([6]; DMSO toxicity): 19.22 ± 1.3%; NIC DMSO A. niger ([6]; DMSO toxicity): 1.78 ± 0.4%; IC50 DMSO C. albicans ([8]; DMSO toxicity): 8.50 ± 0.5%; MIC DMSO C. albicans ([8]; DMSO toxicity): 14.98 ± 0.6%; NIC DMSO C. albicans ([8]; DMSO toxicity): 4.94 ± 0.5%
